Measurements taken from paper PMC6270165, “Synthesis and Biological Evaluation of 3-Benzisoxazolyl-4-indolylmaleimides as Potent, Selective Inhibitors of Glycogen Synthase Kinase-3β” (Molecules, 2013).

Experiments:
Assay type in all cases: biochemical
[1] = target: T1, IKK2 (Homo sapiens, UniProt O14920); test: IKK2 (IKKβ) kinase assay (HTRF); conditions: read-out: IKK2 inhibition% at 0.8 μg/mL (~2 μM)
T1 construct: His-tag (N); made in house
T1 sequence (O14920 1-756): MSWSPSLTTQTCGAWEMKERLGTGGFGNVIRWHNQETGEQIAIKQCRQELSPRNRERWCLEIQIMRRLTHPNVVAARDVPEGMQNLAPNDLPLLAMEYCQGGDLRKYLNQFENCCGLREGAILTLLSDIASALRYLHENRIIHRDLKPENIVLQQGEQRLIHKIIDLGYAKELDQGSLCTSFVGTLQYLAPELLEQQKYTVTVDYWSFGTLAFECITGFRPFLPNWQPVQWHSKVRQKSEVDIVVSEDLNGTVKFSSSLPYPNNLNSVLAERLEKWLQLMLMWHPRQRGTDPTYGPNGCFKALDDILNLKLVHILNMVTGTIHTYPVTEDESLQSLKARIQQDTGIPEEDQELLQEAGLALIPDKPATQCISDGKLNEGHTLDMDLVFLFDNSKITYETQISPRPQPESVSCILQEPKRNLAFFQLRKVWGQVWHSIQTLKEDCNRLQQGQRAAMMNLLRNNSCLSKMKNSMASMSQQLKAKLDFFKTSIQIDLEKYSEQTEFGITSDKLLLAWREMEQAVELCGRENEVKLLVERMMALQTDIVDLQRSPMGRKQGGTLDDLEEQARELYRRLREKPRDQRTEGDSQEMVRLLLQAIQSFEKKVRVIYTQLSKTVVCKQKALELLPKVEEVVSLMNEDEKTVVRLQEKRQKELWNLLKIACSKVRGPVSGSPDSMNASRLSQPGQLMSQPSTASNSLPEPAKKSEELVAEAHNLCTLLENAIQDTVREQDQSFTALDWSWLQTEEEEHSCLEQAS
Description: (§1) GSK3β belongs to CMGC family. Here, the other family members were used to evaluate the selectivity of GSK3β inhibitors, including PKC-epsilon (AGC family), JAK2 (TK family), Braf (TKL family), DRAK2 (CAMK family) and IKKβ (other family).The recombinant GST-GSK-3βprotein was expressed in Escherichia coli strain BL21-Codon Plus (DE3), purified by GSTrap affinity chromatography, and cleaved by thrombin. The GSK-3β kinase assay was carried out with the Z´-LYTETM Kinase Assay kit Ser/Thr 9 Peptide substrate (Invitrogen, Grand, NY, USA) in 10 μL reaction volume containing 50 nM enzyme, 30 μM ATP and 2 μM substrate peptide. Drak2 Proteins were presented by professor Jiang-ping Wu (Laboratory of Immunology, Research Centre, CHUM, Notre Dame Hospital, Pavilion DeSève). The Drak2 kinase reaction was performed in a final assay volume of 3.4 μL using the ADP-GLO Kinase Assay Kit (Promega, Madison, WI, USA), according the ADP-GLO protocol and read on an EnVision plate reader. The recombinant PKC-epsilon, IKKβ, and JAK2 with N-terminal His-tag were expressed using baculovirus expression system and purified with Ni-Beads. BRAF protein was from Carna Biosciences, Inc. (Kobe Port Island, Japan). And the related kinase reactions were performed in a final assay volume of 10 μL using the related HTRF Assay Kit (Cisbio, Codolet, France). Reactions were according the HTRF protocol and read on an EnVision plate reader. All reactions were carried out in triplicate. […] Data were expressed as mean ± SE.

[2] = target: T2, PKC-epsilon (Homo sapiens, UniProt Q02156); test: PKC-epsilon kinase assay (HTRF); conditions: read-out: PKC-epsilon inhibition% at 0.8 μg/mL (~2 μM)
T2 construct: His-tag (N); made in house
T2 sequence (Q02156 1-737): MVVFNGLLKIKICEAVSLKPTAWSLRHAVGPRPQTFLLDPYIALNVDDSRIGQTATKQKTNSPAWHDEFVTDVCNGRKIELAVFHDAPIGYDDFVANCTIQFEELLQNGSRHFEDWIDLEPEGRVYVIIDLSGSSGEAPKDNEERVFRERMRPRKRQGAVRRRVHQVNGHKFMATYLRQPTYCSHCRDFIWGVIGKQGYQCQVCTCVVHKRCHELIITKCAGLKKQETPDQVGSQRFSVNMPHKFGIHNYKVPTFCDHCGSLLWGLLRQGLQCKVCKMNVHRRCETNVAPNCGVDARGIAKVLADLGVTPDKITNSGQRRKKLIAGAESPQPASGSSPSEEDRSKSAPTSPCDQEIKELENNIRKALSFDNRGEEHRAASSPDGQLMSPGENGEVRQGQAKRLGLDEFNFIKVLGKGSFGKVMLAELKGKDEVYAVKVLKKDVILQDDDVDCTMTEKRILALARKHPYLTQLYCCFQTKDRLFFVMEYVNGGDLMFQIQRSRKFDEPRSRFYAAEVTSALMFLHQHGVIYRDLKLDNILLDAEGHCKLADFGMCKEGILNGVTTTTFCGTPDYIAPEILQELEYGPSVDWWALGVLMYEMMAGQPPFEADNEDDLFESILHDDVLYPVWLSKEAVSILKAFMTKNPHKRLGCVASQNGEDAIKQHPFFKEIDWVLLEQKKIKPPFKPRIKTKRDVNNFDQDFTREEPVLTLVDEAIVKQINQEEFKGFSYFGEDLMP
Description: as §1

[3] = target: T3, JAK2 (Homo sapiens, UniProt O60674); test: JAK2 kinase assay (HTRF); conditions: read-out: JAK2 inhibition% at 0.8 μg/mL (~2 μM)
T3 construct: His-tag (N); made in house
Description: as §1

[4] = target: T4, BRAF (Homo sapiens, UniProt P15056); test: BRAF kinase assay (HTRF); conditions: read-out: BRAF inhibition% at 0.8 μg/mL (~2 μM)
T4 construct: purchased Carna Biosciences, Inc
Description: as §1

T3 sequence (O60674 whole entry): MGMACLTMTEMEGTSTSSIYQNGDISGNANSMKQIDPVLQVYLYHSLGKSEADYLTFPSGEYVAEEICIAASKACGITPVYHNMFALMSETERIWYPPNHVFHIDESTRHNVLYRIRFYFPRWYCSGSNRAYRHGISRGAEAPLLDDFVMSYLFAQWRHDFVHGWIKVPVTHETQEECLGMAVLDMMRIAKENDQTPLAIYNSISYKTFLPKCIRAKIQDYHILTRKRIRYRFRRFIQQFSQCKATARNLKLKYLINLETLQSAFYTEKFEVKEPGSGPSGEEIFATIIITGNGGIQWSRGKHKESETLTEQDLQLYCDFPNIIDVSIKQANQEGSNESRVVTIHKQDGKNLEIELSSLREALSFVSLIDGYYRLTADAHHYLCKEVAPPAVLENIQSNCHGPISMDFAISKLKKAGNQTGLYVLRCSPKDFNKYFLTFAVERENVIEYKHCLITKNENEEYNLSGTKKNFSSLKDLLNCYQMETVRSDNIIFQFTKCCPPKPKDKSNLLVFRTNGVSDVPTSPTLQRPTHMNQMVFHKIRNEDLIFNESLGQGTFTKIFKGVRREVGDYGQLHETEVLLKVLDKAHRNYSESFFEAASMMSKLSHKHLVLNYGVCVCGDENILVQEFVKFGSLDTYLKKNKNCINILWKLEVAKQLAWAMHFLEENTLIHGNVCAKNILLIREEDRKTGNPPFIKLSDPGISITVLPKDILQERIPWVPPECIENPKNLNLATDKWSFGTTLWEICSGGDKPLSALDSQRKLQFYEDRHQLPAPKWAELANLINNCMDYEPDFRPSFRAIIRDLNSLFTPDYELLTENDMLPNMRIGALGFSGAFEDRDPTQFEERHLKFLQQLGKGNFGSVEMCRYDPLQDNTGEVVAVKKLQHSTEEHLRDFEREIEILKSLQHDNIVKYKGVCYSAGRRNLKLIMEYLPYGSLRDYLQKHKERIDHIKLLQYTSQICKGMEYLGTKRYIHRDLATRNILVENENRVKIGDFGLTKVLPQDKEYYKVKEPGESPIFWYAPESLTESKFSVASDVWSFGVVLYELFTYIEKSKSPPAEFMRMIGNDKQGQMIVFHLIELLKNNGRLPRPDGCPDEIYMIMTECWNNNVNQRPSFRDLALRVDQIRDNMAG
T4 sequence (P15056 whole entry): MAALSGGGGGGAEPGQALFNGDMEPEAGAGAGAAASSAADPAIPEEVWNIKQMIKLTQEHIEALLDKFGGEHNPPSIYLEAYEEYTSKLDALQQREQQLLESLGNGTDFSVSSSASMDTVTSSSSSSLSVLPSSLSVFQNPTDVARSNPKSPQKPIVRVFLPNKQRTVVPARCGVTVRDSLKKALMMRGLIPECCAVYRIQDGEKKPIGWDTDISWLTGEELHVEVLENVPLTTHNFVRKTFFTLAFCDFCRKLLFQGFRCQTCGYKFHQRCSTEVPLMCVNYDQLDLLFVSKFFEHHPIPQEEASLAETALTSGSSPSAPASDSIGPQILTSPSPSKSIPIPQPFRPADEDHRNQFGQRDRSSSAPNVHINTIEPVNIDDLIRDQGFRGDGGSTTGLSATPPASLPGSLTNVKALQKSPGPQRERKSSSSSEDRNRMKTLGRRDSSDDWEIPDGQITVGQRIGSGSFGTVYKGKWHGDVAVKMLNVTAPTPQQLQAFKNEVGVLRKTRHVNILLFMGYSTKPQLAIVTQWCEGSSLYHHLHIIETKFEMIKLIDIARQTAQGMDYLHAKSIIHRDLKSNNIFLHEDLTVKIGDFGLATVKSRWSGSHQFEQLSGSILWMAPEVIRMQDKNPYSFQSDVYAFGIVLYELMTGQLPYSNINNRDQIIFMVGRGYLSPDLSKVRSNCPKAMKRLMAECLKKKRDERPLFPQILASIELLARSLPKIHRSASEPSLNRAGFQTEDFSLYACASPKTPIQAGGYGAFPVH

Q: How did the inhibition at 2 µM [1] turn out when `O=C1NC(=O)C(c2cn(CCCN3CCOCC3)c3ccc(Br)cc23)=C1c1noc2ccccc12` [7c, 3-(Benzo[d]isoxazol-3-yl)-4-(5-bromo-1-(3-morpholinopropyl)-1H-indol-3-yl)-1H-pyrrole-2,5-dione] was run?
A: 13.1%

Q: What about the inhibition at 2 µM [2] of the same compound?
A: 12.1%

Q: What about the inhibition at 2 µM [3] of the same compound?
A: 0.1%

Q: What about the inhibition at 2 µM [4] of the same compound?
A: 3.4%
